Consider 32 compounds from US6174907A, “Benzimidazole compounds containing 1,2,4-triazole ring, and compositions and methods of use containing the same” (Fuji Photo Film Co., Ltd., priority 1995, dated 2001).

In data set [1] the test system is mouse peritoneal macrophages. Description: Cytotoxicity examined microscopically (morphological alteration of cells). It is filed as cell-based, mouse (female ICR). Particulars: Table 3; 5 μM; observed microscopically. How it is done: (§1) Activity of the compounds of the present invention for suppressing the foaming of macrophages, which triggers arterial sclerosis, was examined by an in vitro experiment using mouse peritoneal macrophages. 15-Week old female ICR mice (Nippon SLC) were subjected to bleeding by cutting off their cervicalis, and Hanks buffer (Nippon Seiyaku) was injected into their peritoneal cavities. After abdominal regions of the mice were massaged, the buffer was recovered immediately, and then the resulting buffer was centrifuged at 1,000 r.p.m. for five minutes to collect peritoneal macrophages. Then, the collected macrophages were suspended in GTI medium (Wako Pure Chemical Industries), and inoculated onto a 24-well microtiter plate. After the macrophages were cultivated at 37° C. under 5% CO2 for two hours, the culture medium was changed with Dulbecco Modified Eagle Medium (MEM, Nippon Seiyaku). The macrophages were further cultivated at 37° C. under 5% CO2 for 16 hours, and then a test compound and liposomes were added to the culture.
(§2) After cultivation was further continued at 37° C. under 5% CO2 for 16 hours, lipid fraction was extracted with chloroform and methanol. The extracted lipid fraction was dissolved in isopropyl alcohol, and the produced cholesterol ester (CE) was quantified by an enzymatic luminescence method. Yield of the cholesterol ester was calculated as a relative ratio based on yield of the control as 100% where no test compound was added. Cytotoxicity was examined microscopically by observing morphological alteration of cells. In the tables, compound numbers correspond to those of the compounds of present invention described in the examples.

For data set [2], the system named is mouse peritoneal macrophages. Briefly: Suppression of foaming of macrophages (cholesterol ester synthesis) in vitro. It counts as cell-based, mouse (female ICR). The following applies: Mus musculus, Peritoneal macrophage; Table 3; 5 μM; 16 hours; relative to control as 100%; smaller value = more potent suppression; read-out: Rate of CE synthesis (%). How it is done: Activity of the compounds of the present invention for suppressing the foaming of macrophages
as §1
1) Test compound: dissolved in DMSO (Wako Pure Chemical Industries),
PC: Phosphatidylcholine (Funakoshi);
PS: Phosphatidylserine (Funakoshi);
DCP: Dicetylphosphate (Funakoshi);
CHOL: Cholesterol (Sigma)
as §2

As to `Cc1ccc2[nH]c(SCCCCCSc3nc4ccccc4[nH]3)nc2c1` [Compound A1, 1-(2'-(5'-methylbenzimidazolyl)thio)-5-(2"-benzimidazolylthio)pentane], in data set [1], the Cytotoxicity entry is given as “Not observed”. Besides, in data set [2], the activity at 5 µM was 41%.

For `Clc1ccc2[nH]c(SCCCCCSc3nc4ccccc4[nH]3)nc2c1` [Compound A2, 1-(2'-(5'-chlorobenzimidazolyl)thio)-5-(2"-benzimidazolylthio)pentane], in data set [1], the Cytotoxicity entry is listed as “Not observed”. In addition, in data set [2], the activity at 5 µM was determined as 52%.

With `Cc1ccc2[nH]c(SCCCCCSc3nc4cc(Cl)ccc4[nH]3)nc2c1` [Compound A3, 1-(2-(5'-chlorobenzimidazolyl)thio)-5-(2"-(5"-methylbenzimidazolyl)thio)pentane], the Cytotoxicity result in data set [1] is recorded as “Not observed”. Moreover, in data set [2], the activity at 5 µM worked out at 36%.

For `COc1ccc2[nH]c(SCCCCCSc3nc4cc(C)ccc4[nH]3)nc2c1` [Compound A4, 1-(2'-(5'-methoxybenzimidazolyl)thio)-5-(2"-(5"-methylbenzimidazolyl)thio)pentane], the Cytotoxicity entry in data set [1] is listed as “Not observed”. In addition, in data set [2], the activity at 5 µM amounted to 41%.

Consider `COc1ccc2[nH]c(SCCCCCSc3nc4ccccc4[nH]3)nc2c1` [Compound A5, 1-(2'-benzimidazolylthio)-5-(2"-(5"-methoxybenzimidazolyl)thio)pentane], for which the Cytotoxicity result in data set [1] is reported as “Not observed”. Also, the activity at 5 µM in data set [2] was found to be 39%.

As to `Oc1ccc2[nH]c(SCCCCCSc3nc4ccccc4[nH]3)nc2c1` [Compound A6, 1-(2'-benzimidazolylthio)-5-(2"-(5"-hydroxybenzimidazolyl)thio)pentane], the Cytotoxicity entry in data set [1] is on record as “Not observed”. The activity at 5 µM in data set [2] amounted to 46%.

Consider `CS(=O)(=O)Nc1ccc2[nH]c(SCCCCCSc3nc4ccccc4[nH]3)nc2c1` [Compound A7, 1-(2'-benzimidazolylthio)-5-(2"-(5"-methanesulfonylamino-benzimidazolyl)thio)pentane], for which the Cytotoxicity result in data set [1] is given as “Not observed”. The activity at 5 µM in data set [2] was found to be 22%.

With `CCC(=O)Nc1ccc2[nH]c(SCCCCCSc3nc4ccccc4[nH]3)nc2c1` [Compound A8, 1-(2'-benzimidazolylthio)-5-(2"-(5"-propionylaminobenzimidazolyl)thio)pentane], the Cytotoxicity result in data set [1] is “Not observed”. The activity at 5 µM in data set [2] came out at 24%.

As to `CCOC(=O)c1ccc2[nH]c(SCCCCCSc3nc4ccccc4[nH]3)nc2c1` [Compound A9, 1-(2'-(5'-ethoxycarbonylbenzimidazolyl)thio)-5-(2"-benzimidazolylthio)pentane], the Cytotoxicity entry in data set [1] is recorded as “Not observed”. For the same compound, the activity at 5 µM in data set [2] is 28%.

For the compound `Cc1cc2nc(SCCCCCSc3nc4ccccc4[nH]3)[nH]c2cc1C` [Compound A10, 1-(2'-(5',6'-dimethylbenzimidazolyl)thio)-5-(2"-benzimidazolylthio)pentane], in data set [1], the Cytotoxicity entry is “Not observed”. Moreover, in data set [2], the activity at 5 µM came to 20%.

In the case of `Clc1cc2nc(SCCCCCSc3nc4ccccc4[nH]3)[nH]c2cc1Cl` [Compound A11, 1-(2'-(5',6'-dichlorobenzimidazolyl)thio)-5-(2"-benzimidazolylthio)pentane], the Cytotoxicity result in data set [1] is recorded as “Not observed”. Besides, in data set [2], the activity at 5 µM turned out to be 9%.

As for `Clc1cc2nc(SCCCCCCSc3nc4ccccc4[nH]3)[nH]c2cc1Cl` [Compound A12, 1-(2'-(5',6'-dichlorobenzimidazolyl)thio)-6-(2"-benzimidazolylthio)hexane], the Cytotoxicity entry in data set [1] is “Not observed”. The activity at 5 µM in data set [2] was 42%.

Turning to `Clc1cc2nc(SCCCCCCCCSc3nc4ccccc4[nH]3)[nH]c2cc1Cl` [Compound A13, 1-(2'-(5',6'-dichlorobenzimidazolyl)thio)-8-(2"-benzimidazolylthio)octane], the Cytotoxicity entry in data set [1] is recorded as “Not observed”. The activity at 5 µM in data set [2] was 58%.

Take `Cc1ccc2[nH]c(SCCCCCSc3nc4cc(Cl)c(Cl)cc4[nH]3)nc2c1` [Compound A14, 1-(2'-(5',6'-dichlorobenzimidazolyl)thio)-5-(2"-(5"-methylbenzimidazolyl)thio)pentane]: the Cytotoxicity result in data set [1] is recorded as “Not observed”. The activity at 5 µM in data set [2] was determined as 42%.

For `Cc1cc2nc(SCCCCCSc3nc4cc(Cl)c(Cl)cc4[nH]3)[nH]c2cc1C` [Compound A15, 1-(2'-(5',6'-dichlorobenzimidazolyl)thio)-5-(2"-(5",6"-dimethylbenzimidazolyl)thio)pentane], the Cytotoxicity result in data set [1] was “Not observed”. Further, the activity at 5 µM in data set [2] came to 36%.

In the case of `FC(F)(F)c1cc2[nH]c(SCCCCCSc3nc4ccccc4[nH]3)nc2cc1Cl` [Compound A16, 1-(2'-(5'-chloro-6'-trifluoromethylbenzimidazolyl)thio)-5-(2"-benzimidazolylthio)pentane], in data set [1], the Cytotoxicity result was “Not observed”. In data set [2], the activity at 5 µM was found to be 34%.

In the case of `N#Cc1ccc2[nH]c(SCCCCCSc3nc4ccccc4[nH]3)nc2c1` [Compound A17, 1-(2'-(5'-cyanobenzimidazolyl)thio)-5-(2"-benzimidazolylthio)pentane], in data set [1], the Cytotoxicity entry was “Not observed”. Moreover, in data set [2], the activity at 5 µM stood at 24%.

Consider `Cc1ccc2[nH]c(SCCCCSc3nc4ccccc4[nH]3)nc2c1` [Compound A18, 1-(2'-(5'-methylbenzimidazolyl)thio)-4-(2"-benzimidazolylthio)butane], for which the Cytotoxicity entry in data set [1] is reported as “Not observed”. Also, the activity at 5 µM in data set [2] was determined as 52%.

For the compound `Cc1ccc2[nH]c(SCCCCCCSc3nc4ccccc4[nH]3)nc2c1` [Compound A19, 1-(2'-(5'-methylbenzimidazolyl)thio)-6-(2"-benzimidazolylthio)hexane], in data set [1], the Cytotoxicity entry is “Not observed”. Moreover, in data set [2], the activity at 5 µM came to 54%.

For `Cc1ccc2[nH]c(SCCCCCCCCSc3nc4ccccc4[nH]3)nc2c1` [Compound A20, 1-(2'-(5'-methylbenzimidazolyl)thio)-8-(2"-benzimidazolylthio)octane], in data set [1], the Cytotoxicity entry is listed as “Not observed”. Moreover, the activity at 5 µM in data set [2] turned out to be 61%.

`Cc1ccc2[nH]c(SCCOCCSc3nc4ccccc4[nH]3)nc2c1` [Compound A21]: the Cytotoxicity entry in data set [1] is on record as “Not observed”. Further, the activity at 5 µM in data set [2] was 24%.

Turning to `Cc1ccc2[nH]c(SCCOCCOCCSc3nc4ccccc4[nH]3)nc2c1` [Compound A22], in data set [1], the Cytotoxicity entry is reported as “Not observed”. Further, in data set [2], the activity at 5 µM worked out at 20%.

Take `CNS(=O)(=O)c1ccc2c(c1)nc(SCCCCCSc1nc3ccccc3[nH]1)n2C` [Compound A23, 1-(2'-(1'-methyl-5'-methylsulfamoylbenzimidazolyl)thio)-5-(2"-benzimidazolylthio)pentane]: the Cytotoxicity result in data set [1] was “Not observed”. Besides, the activity at 5 µM in data set [2] was 34%.

As for `CCC(=O)n1c(CCCCCSc2nc3ccccc3n2C(=O)CC)nc2ccccc21` [Compound A24, 1-propionyl-2-(5-(2'-(1-propionylbenzimidazolyl)thio)pentyl)benzimidazole], the Cytotoxicity entry in data set [1] is given as “Not observed”. In addition, the activity at 5 µM in data set [2] was found to be 40%.

With `CCC(=O)n1c(SCCCCCSc2nc3cc(S(=O)(=O)NC)ccc3n2C)nc2ccccc21` [Compound A25], in data set [1], the Cytotoxicity entry is on record as “Not observed”. Moreover, in data set [2], the activity at 5 µM came out at 32%.

For the compound `Cn1c(CCCCCSc2nc3ccccc3n2C)nc2ccccc21` [Compound A26, 1-methyl-2-(5-(2'-(1-methylbenzimidazolyl)thio)pentyl)benzimidazole], the Cytotoxicity result in data set [1] is reported as “Not observed”. For the same compound, the activity at 5 µM in data set [2] was 35%.

For the compound `c1ccc2[nH]c(CCCCCSc3nc4ccccc4[nH]3)nc2c1` [Compound A27, 2-(5-(2'-benzimidazolylthio)pentyl)benzimidazole], in data set [1], the Cytotoxicity entry is recorded as “Not observed”. In addition, the activity at 5 µM in data set [2] was 48%.

As to `Cc1cc2nc(CCCCCSc3nc4ccccc4[nH]3)[nH]c2cc1C` [Compound A28, 2-(5-(2'-benzimidazolylthio)pentyl)-5,6-dimethylbenzimidazole], the Cytotoxicity result in data set [1] is listed as “Not observed”. For the same compound, the activity at 5 µM in data set [2] came to 49%.

As for `O=[N+]([O-])c1ccc2[nH]c(CCCCCSc3nc4ccccc4[nH]3)nc2c1` [Compound A30], the Cytotoxicity entry in data set [1] is reported as “Not observed”. The activity at 5 µM in data set [2] was 52%.

`c1ccc2[nH]c(CCCCCCCSc3nc4ccccc4[nH]3)nc2c1` [Compound A31, 2-(7-(2'-benzimidazolylthio)heptyl)benzimidazole]: the Cytotoxicity entry in data set [1] is on record as “Not observed”. In data set [2], the activity at 5 µM was found to be 53%.

Take `c1ccc2[nH]c(CCCCCCCCCCCSc3nc4ccccc4[nH]3)nc2c1` [Compound A32, 2-(11-(2'-benzimidazolylthio)undecyl)benzimidazole]: the Cytotoxicity result in data set [1] is on record as “Not observed”. In addition, the activity at 5 µM in data set [2] stood at 62%.

In the case of `c1ccc2[nH]c(SCCCCCSc3nc4ccccc4s3)nc2c1` [Compound A33, 1-(2'-benzimidazolylthio)-5-(2"-benzothiazolylthio)pentane], the Cytotoxicity entry in data set [1] is given as “Not observed”. Also, in data set [2], the activity at 5 µM was found to be 13%.
